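Assay format: 96-well plates, 48-hour exposure. The concentration for full growth arrest is given as TGI.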
Key:
Assay in all cases: NCI tumour cell line growth inhibition, 48 h
PC-3 prostate = system: PC-3 prostate
BT-549 breast = system: BT-549 breast
SN12C renal = system: SN12C renal
NCI/ADR-RES ovarian = system: NCI/ADR-RES ovarian
HCT-15 colon = system: HCT-15 colon
LOX IMVI melanoma = system: LOX IMVI melanoma
OVCAR-8 ovarian = system: OVCAR-8 ovarian
NCI-H460 lung = system: NCI-H460 lung
UACC-257 melanoma = system: UACC-257 melanoma
OVCAR-5 ovarian = system: OVCAR-5 ovarian
M14 melanoma = system: M14 melanoma
UO-31 renal = system: UO-31 renal
SK-MEL-28 melanoma = system: SK-MEL-28 melanoma
NCI-H226 lung = system: NCI-H226 lung
SK-OV-3 ovarian = system: SK-OV-3 ovarian
SR leukemia = system: SR leukemia
SW-620 colon = system: SW-620 colon
RXF 393 renal = system: RXF 393 renal
T-47D breast = system: T-47D breast
MDA-N = system: MDA-N
A498 renal = system: A498 renal
MDA-MB-435 = system: MDA-MB-435
IGROV1 ovarian = system: IGROV1 ovarian
KM12 colon = system: KM12 colon
EKVX NSCLC = system: EKVX NSCLC
MALME-3M melanoma = system: MALME-3M melanoma
MOLT-4 leukemia = system: MOLT-4 leukemia
HT29 colon = system: HT29 colon
HCT-116 colon = system: HCT-116 colon
786-0 renal = system: 786-0 renal
SF-268 CNS = system: SF-268 CNS
COLO 205 colon = system: COLO 205 colon
SF-539 CNS = system: SF-539 CNS
ACHN renal = system: ACHN renal
OVCAR-3 ovarian = system: OVCAR-3 ovarian
HL-60(TB) leukemia = system: HL-60(TB) leukemia
SK-MEL-2 melanoma = system: SK-MEL-2 melanoma
CAKI-1 renal = system: CAKI-1 renal
U251 CNS = system: U251 CNS
OVCAR-4 ovarian = system: OVCAR-4 ovarian
NCI-H522 lung = system: NCI-H522 lung
UACC-62 melanoma = system: UACC-62 melanoma
SK-MEL-5 melanoma = system: SK-MEL-5 melanoma
SNB-19 CNS = system: SNB-19 CNS
DU-145 prostate = system: DU-145 prostate
HCC-2998 colon = system: HCC-2998 colon
NCI-H23 lung = system: NCI-H23 lung
A549 NSCLC = system: A549 NSCLC
MDA-MB-231 breast = system: MDA-MB-231 breast
SF-295 CNS = system: SF-295 CNS
TK-10 renal = system: TK-10 renal
HOP-92 NSCLC = system: HOP-92 NSCLC
MCF7 breast = system: MCF7 breast
CCRF-CEM leukemia = system: CCRF-CEM leukemia
K-562 leukemia = system: K-562 leukemia
SNB-75 CNS = system: SNB-75 CNS
HOP-62 NSCLC = system: HOP-62 NSCLC
RPMI-8226 leukemia = system: RPMI-8226 leukemia
HS 578T breast = system: HS 578T breast

## CC1=C(C#N)C23C(=O)c4ccccc4C(O)=C2C(=O)C=CC3(O)N1 (stereo not drawn)
PC-3 prostate
  TGI: 28.7 µM
BT-549 breast
  TGI: 3.38 µM
SN12C renal
  TGI: 6.19 µM
NCI/ADR-RES ovarian
  TGI: > 100 µM
HCT-15 colon
  TGI: > 100 µM
LOX IMVI melanoma
  TGI: 18.9 µM
OVCAR-8 ovarian
  TGI: > 100 µM
NCI-H460 lung
  TGI: 31.1 µM
UACC-257 melanoma
  TGI: 4.56 µM
OVCAR-5 ovarian
  TGI: 36.3 µM
M14 melanoma
  TGI: 13 µM
UO-31 renal
  TGI: 7.55 µM
SK-MEL-28 melanoma
  TGI: 5.23 µM
NCI-H226 lung
  TGI: 32 µM
SK-OV-3 ovarian
  TGI: > 100 µM
SR leukemia
  TGI: 1.5 µM
SW-620 colon
  TGI: 12.6 µM
RXF 393 renal
  TGI: 9.74 µM
T-47D breast
  TGI: > 100 µM
MDA-N
  TGI: 3.95 µM
A498 renal
  TGI: 37.6 µM
MDA-MB-435
  TGI: 9.37 µM
IGROV1 ovarian
  TGI: 17.2 µM
KM12 colon
  TGI: 38.6 µM
EKVX NSCLC
  TGI: > 100 µM
MALME-3M melanoma
  TGI: 3.86 µM
MOLT-4 leukemia
  TGI: > 100 µM
HT29 colon
  TGI: 5.02 µM
HCT-116 colon
  TGI: > 100 µM
786-0 renal
  TGI: 28.1 µM
SF-268 CNS
  TGI: 26.2 µM
COLO 205 colon
  TGI: > 100 µM
SF-539 CNS
  TGI: 8.83 µM
ACHN renal
  TGI: 19.9 µM
OVCAR-3 ovarian
  TGI: > 100 µM
HL-60(TB) leukemia
  TGI: 15.2 µM
SK-MEL-2 melanoma
  TGI: 22.5 µM
CAKI-1 renal
  TGI: 23.3 µM
U251 CNS
  TGI: > 100 µM
OVCAR-4 ovarian
  TGI: 4.16 µM
NCI-H522 lung
  TGI: 4.81 µM
UACC-62 melanoma
  TGI: 6.4 µM
SK-MEL-5 melanoma
  TGI: 2.75 µM
SNB-19 CNS
  TGI: 25.5 µM
DU-145 prostate
  TGI: 7.69 µM
HCC-2998 colon
  TGI: 23 µM
NCI-H23 lung
  TGI: 31.9 µM
A549 NSCLC
  TGI: > 100 µM
MDA-MB-231 breast
  TGI: 43.5 µM
SF-295 CNS
  TGI: 66.9 µM
TK-10 renal
  TGI: 35.7 µM
HOP-92 NSCLC
  TGI: 6.38 µM
MCF7 breast
  TGI: 4.59 µM
CCRF-CEM leukemia
  TGI: > 100 µM
K-562 leukemia
  TGI: > 100 µM
SNB-75 CNS
  TGI: 4.56 µM
HOP-62 NSCLC
  TGI: 51 µM

## CCOC(=O)/C(C=Nc1c(C)n(C)n(-c2ccccc2)c1=O)=C(/O)c1ccccc1
PC-3 prostate
  TGI: > 100 µM
BT-549 breast
  TGI: > 100 µM
SN12C renal
  TGI: > 100 µM
HCT-15 colon
  TGI: > 100 µM
LOX IMVI melanoma
  TGI: > 100 µM
NCI-H460 lung
  TGI: > 100 µM
UACC-257 melanoma
  TGI: > 100 µM
OVCAR-5 ovarian
  TGI: > 100 µM
M14 melanoma
  TGI: > 100 µM
UO-31 renal
  TGI: > 100 µM
SK-MEL-28 melanoma
  TGI: > 100 µM
NCI-H226 lung
  TGI: > 100 µM
SK-OV-3 ovarian
  TGI: > 100 µM
SR leukemia
  TGI: > 100 µM
SW-620 colon
  TGI: > 100 µM
RXF 393 renal
  TGI: > 100 µM
T-47D breast
  TGI: > 100 µM
MDA-N
  TGI: > 100 µM
RPMI-8226 leukemia
  TGI: > 100 µM
A498 renal
  TGI: > 100 µM
HS 578T breast
  TGI: > 100 µM
MDA-MB-435
  TGI: > 100 µM
IGROV1 ovarian
  TGI: > 100 µM
KM12 colon
  TGI: 0.746 µM
EKVX NSCLC
  TGI: > 100 µM
MALME-3M melanoma
  TGI: > 100 µM
MOLT-4 leukemia
  TGI: > 100 µM
HT29 colon
  TGI: > 100 µM
HCT-116 colon
  TGI: > 100 µM
786-0 renal
  TGI: > 100 µM
SF-268 CNS
  TGI: > 100 µM
COLO 205 colon
  TGI: > 100 µM
SF-539 CNS
  TGI: > 100 µM
ACHN renal
  TGI: > 100 µM
OVCAR-3 ovarian
  TGI: > 100 µM
HL-60(TB) leukemia
  TGI: > 100 µM
SK-MEL-2 melanoma
  TGI: > 100 µM
CAKI-1 renal
  TGI: > 100 µM
U251 CNS
  TGI: > 100 µM
OVCAR-4 ovarian
  TGI: > 100 µM
NCI-H522 lung
  TGI: > 100 µM
UACC-62 melanoma
  TGI: > 100 µM
SK-MEL-5 melanoma
  TGI: > 100 µM
SNB-19 CNS
  TGI: > 100 µM
DU-145 prostate
  TGI: > 100 µM
HCC-2998 colon
  TGI: > 100 µM
NCI-H23 lung
  TGI: > 100 µM
A549 NSCLC
  TGI: > 100 µM
MDA-MB-231 breast
  TGI: > 100 µM
SF-295 CNS
  TGI: > 100 µM
TK-10 renal
  TGI: > 100 µM
HOP-92 NSCLC
  TGI: > 100 µM
MCF7 breast
  TGI: > 100 µM
CCRF-CEM leukemia
  TGI: > 100 µM
K-562 leukemia
  TGI: > 100 µM
HOP-62 NSCLC
  TGI: > 100 µM

From PubChem BioAssay (NCI)
